# Experimental data as given in article PMC3902791 (Molecular imaging and biology : MIB : the official …, 2012).
# Entries after “also recorded” stand apart in the source; their conditions may differ.
# System: rhesus macaques
# Experiment: Hematology and blood chemistry before and after PET imaging
# Type: in vivo
smiles,measurement,setting,value
"O=C(O)C[18F] [^18F-FACE, ^18F-fluoroacetate]",ALP,After 1–3 months,134.0±58.2 IU/L
same,ALT,After 1–3 months,30.5±8.5 IU/L
same,AST,After 1–3 months,28.7±3.4 IU/L
same,Albumin,After 1–3 months,3.4 ± 0.8 g/dL
same,BUN,After 1–3 months,17.9 ± 4.9 mg/dL
same,Hb,After 1–3 months,13.4 ± 0.4 g/dL
same,Hct,After 1–3 months,42.4±2.0 %
same,Plt,After 1–3 months,303.0±118.8 ×10^6/mL
same,RBC,After 1–3 months,5.7±0.1 ×10^6/mL
same,Total bilirubin,After 1–3 months,0.2 ± 0.1 mg/dL
same,Total protein,After 1–3 months,6.1 ± 0.9 g/dL
same,WBC,After 1–3 months,4.8±0.5 ×10^3/mL
same,ALP,After imaging,169.4±61.3 IU/L
same,ALT,After imaging,34.2±12.2 IU/L
same,AST,After imaging,29.0±5.6 IU/L
same,Albumin,After imaging,3.9 ± 0.8 g/dL
same,BUN,After imaging,17.9 ± 4.6 mg/dL
same,Hb,After imaging,13.1 ± 1.2 g/dL
same,Hct,After imaging,41.4±2.5 %
same,Plt,After imaging,328.1±54.2 ×10^6/mL
same,RBC,After imaging,5.7±0.6 ×10^6/mL
same,Total bilirubin,After imaging,0.3 ± 0.1 mg/dL
same,Total protein,After imaging,7.0 ± 0.5 g/dL
same,WBC,After imaging,6.8± 1.1 ×10^3/mL
same,"changes in CBC, blood chemistry, liver enzymes, renal function",before vs after 3 h and 1–3 months,"no statistically significant changes; also recorded: no significant changes in CBC, liver enzymes, or renal function"
